Reference: US8173428B2, “LNA oligonucleotides and the treatment of cancer” (Santaris Pharma A/S, priority 2004, dated 2012)
Like-named read-outs stand apart in the source and are kept apart here. Oligonucleotides are written 5' to 3', each unit as a sugar letter and its base; * is a phosphorothioate linkage, no mark a phosphodiester; rarer units and linkages stand in square brackets, end groups in braces. Plain capitals give the bases only. l = locked nucleic acid (LNA); [5mC] = 5-methylcytosine; d = 2'-deoxy (DNA)

How the values were obtained:
15PC3 cells [1] = assay: Caspase 3/7 activity (apoptosis) in transfected 15PC3 cells; format: cell-based, human; conditions: for Apoptosis At 5 nM, 24 hours: 24 hours (Table 7, FIG. 3); for Max Apoptosis: 25 nM, 48 hours (Table 7)
Procedure: (§1) Culturing of cells: 15PC3 was cultured in DMEM (Sigma) containing 10% fetal bovine serum, Glutamax I and gentamicin at 37° C., 95% humidity and 5% CO2. The cervical carcinoma cell line HeLa were cultured in MEM (Sigma) containing 10% fetal bovine serum, Glutamax I and gentamicin at 37° C., 95% humidity and 5% CO2. When reaching 60-70% confluency, the cells were transfected using Lipofectamine 2000 (5 μg/ml).
15PC3 cells were seeded to a density of 10000 cells per well in white 96-well plates (Nunc 136101) in DMEM the day prior to transfection. The next day cells were washed once in prewarmed OptiMEM followed by addition of 72 μl OptiMEM containing 5 μg/ml Lipofectamine-2000 (In vitrogen). Cells were incubated for 7 min before adding 18 μl oligonucleotides diluted in OptiMEM. The final oligonucleotide concentration ranged from 0.2 nM to 100 nM. After 4 hours of treatment, cells were washed in OptiMEM and 100 μl DMEM containing serum was added. Following oligonucleotide treatment, cells were allowed to recover for the period indicated before they were removed from the CO2 incubator and equilibrated to room temperature for 15 min. 100 μl of the highly sensitive Caspase 3/7-Glo™ Reagent (Promega) was added directly to the cells, and the plates were incubated for 20 min. Luminescence (luciferase activity) was recorded in a Luminoskan Ascent instrument (Thermo Labsystems). The luciferase activity is measured as Relative Light Units per seconds (RLU/s). The data was analysed using the Ascent software 2.4.2. Graphs of fold induction relative to mock were generated using MS Excel.
Staurosporine, Camptothecine or Taxol induced cells served as positive controls (see FIGS. 3, 6A and Table 4 plus Example 21).

15PC3 cells [2] = assay: MTS assay of proliferating viable cells; format: cell-based, human
Procedure: as §1
Cells were seeded to a density of 10000 cells per well in clear 96 well plate (Scientific Orange no. 1472030100) in DMEM the day prior to transfection. The next day cells were washed once in prewarmed OptiMEM followed by addition of 72 μl OptiMEM containing 5 μg/ml Lipofectamine 2000 (Invitrogen). Cells were incubated for 7 min before adding 18 μl oligonucleotides diluted in OptiMEM. […] After 4 hours of treatment, cells were washed in OptiMEM and 100 μl serum containing DMEM was added. Following oligonucleotide treatment cells were allowed to recover for the period indicated, viable cells were measured by adding 20 μl of the tetrazolium compound [3-(4,5-[…])-5-(3-carboxymethoxyphenyl)-2-(4-sulfophenyl)-2H-tetrazolium, inner salt; MTS] and an electron coupling reagent (phenazine ethosulfate, PES; CellTiter 96® AQueous One Solution Cell Proliferation Assay, Promega). Viable cells were measured at 490 nm and 650 nm in a Powerwave (Biotek Instruments).
The inhibition of growth rate ΔOD (490-650 nm)/h was plotted against the oligonucleotide concentration relative to mock, which was set to 100%. The maximum inhibition of proliferation observed in the MTS assay was 70% (minimum 30%). (Table 5 and FIG. 5)

HeLa cells = assay: Annexin V-FITC/PI flow cytometry analysis; format: cell-based, human; conditions: 5 nM or 25 nM
Procedure: as §1
0.4×10^6 HeLa cells were seeded in T25 flasks one day prior to transfection. On the day of transfection, the cells were washed once in 37° C. OptiMEM followed by addition of 2.8 ml OptiMEM containing 5 μg/ml Lipofectamine-2000 (In vitrogen). Cells were incubated for 7 min before adding 700 μl oligonucleotides diluted in OptiMEM to a final concentration of 5 nM or 25 nM, Mock transfected cells served as control. After 4 hours of treatment cells were washed in OptiMEM and 3 ml culture medium was added. Following oligonucleotide treatment cells were allowed to recover for 48 hours before they were harvested by scraping and washed twice in PBS. 0.2×10^6 cells were incubated with 5 μl Annexin V-FITC and 10 μl propidium iodide (PI-10 mg/ml) and incubated for 15 min at room temperature in the dark. […] Moreover, TRAIL (Apo2L) induced HeLA cells (0.5 μg/ml) were used as positive control. (See FIG. 4)

15PC3 cells [3] = assay: Cell cycle analysis by propidium iodide staining and FACS; format: cell-based, human; conditions: 10 nM, 24 hours, 15PC3 cells
Procedure: Cell culturing: Human prostate cancer 15PC3 cells (kindly provided by Dr. F Baas, Neurozintuigen Laboratory, AMC, The Netherlands) were seeded to a density of 8×10E5 cells in T75-flasks and grown for two days at 37° C. and 5% CO2 in DMEM supplemented with 10% FBS, Glutamax and Gentamicin. Two days following seeding cells were transfected with 2-10 nM SEQ ID NO. 2 using Lipofectamine at a final conc. of 7.5 μg/ml. Transfections were carried out as described by Dean et al. (1994, JBC 269 p. 16416 16424). In short cells were incubated with Lipofectamine diluted in OptiMEM for 7-10 min followed by the addition of the oligonucleotide to total volume of 8.7 ml per T75 flask. 4 hours following transfection cells were washed in OptiMEM and grown at 37° C. for 12-96 hours in complete growth medium with or without the addition of 2-100 nM Taxol (Sigma Aldrich). Cells were harvested for either mRNA extraction, Caspase 3/7 assay or fixed, stained with PI and analysed by FACS analysis.
Cell culturing and transfections: As in example 13.
Fixation and PI staining: Cells were washed in PBS, harvested and resuspended in 100 μl in ice cold PBS. 900 μl ice cold 70% […] and fixed cells were kept at −20 until use. […]
SEQ ID NO. 2 transfected 15PC3 cells were exposed to different concentrations of Taxol and analysed by Propidium Iodide staining and subsequent FACS analysis (FIG. 7a-c). […]

human Survivin RNA = assay: Survivin mRNA knockdown in transfected 15PC3 cells by real-time PCR; format: cell-based
Procedure: Cell culturing and transfections: 15PC3 cells were seeded in 12-well plates and grown for two days at 37° C. (5% CO2) in DMEM supplemented with 10% FBS, Glutamax I and Gentamicin. When the cells were 60-70% confluent, they were transfected in duplicates with different concentrations of oligonucleotides (0.2-25 nM) using Lipofectamine 2000 (10 μg/ml). Transfections were carried out essentially as described by Dean et al. (1994, JBC 269:16416-16424). In short, cells were incubated for 10 min. with Lipofectamine in OptiMEM followed by addition of oligonucleotide to a total volume of 0.5 ml transfection mix per well. […] Cells were then harvested for protein and RNA analysis.
Total RNA was isolated using RNeasy mini kit (Qiagen). Cells were washed with PBS, and Cell Lysis Buffer (RTL, Qiagen) supplemented with 1% mercaptoethanol was added directly to the wells. After a few minutes, the samples were processed according to manufacturer's instructions.
First strand synthesis was performed using OmniScript Reverse Transcriptase kit according to the manufacturer's instructions (Qiagen). For each sample, 0.5 μg total RNA was adjusted to 12 μl and mixed with 0.2 μl poly (dT)12-18 (0.5 μg/μl) (Life Technologies), 2 μl dNTP mix (5 mM each), 2 μl 10× RT buffer, 0.5 μl RNAguard™ RNase Inhibitor (33 units/ml, Amersham) and 1 μl OmniScript Reverse Transcriptase followed by incubation at 37° C. for 60 min. and heat inactivation at 93° C. for 5 min.
To determine the relative Survivin mRNA level in oligonucleotide treated and untreated cells, the generated cDNA was used in quantitative PCR analysis using an iCycler from BioRad. The cDNA was diluted 5-fold and 8 μl was mixed with 52 μl Taqman probe master mix containing 30 μl Platinum Quantitative PCR SuperMix UDG 2×PCR master mix (Invitrogen), 3 μl 20× Taqman probe and primer mix (forward primer: 5′[…] (SEQ ID NO:29), final 0.9 μM. Reverse primer: 5′[…] (SEQ ID NO:30), final 0.6 μM and taqman probe: FAM-[…]-TAMRA (SEQ ID NO:31), final 0.1 μM) and 19 μl H2O. The 60 μl were dispersed in two wells (96 well plates) with […] in each well. For human Bcl-2 the PCR primers were: […]
The primers and probe were obtained from […] (France). To normalize any variance in sample preparation, the endogenous GAPDH mRNA was quantified using a pre-developed Taqman assay reagent from Applied Biosystems (4310884E) according to manufacturer's Instructions. Two-fold dilutions of cDNA, synthesised from untreated 15PC3 cells (expressing both Survivin and GAPDH), was used to prepare standard curves for the assays. The PCR program was as follows: 50° C. for 2 min., 95° C. for 10 min. followed by 40 cycles of 95° C. 15 sec., 60° C. 1 min. Relative quantities of Survivin mRNA were determined from the calculated threshold cycle using the iCycler IQ Real Time Detection System software.
In accordance with the present invention, a series of oligonucleotides were designed to target different regions of the human Survivin RNA, using published sequences (GenBank accession number NM_001168).
LNA oligonucleotides were evaluated for their potential to knockdown Survivin mRNA in 15PC3 cells. The data are presented as percentage down-regulation relative to mock transfected cells. Transcript steady state was monitored by Real-time PCR and normalised to the GAPDH transcript steady state, see Table 3. Note that all LNA C are 5-methyl-Cytosine.

complementary RNA = assay: Measurement of melting temperature (Tm) of the duplex; format: binding; conditions: 3 μM, 10 mM sodium phosphate/100 mM NaCl/0.1 nM EDTA, pH 7.0
Procedure: Measurement of melting temperature (Tm) of the compounds: A 3 μM solution of SEQ ID NO. 2 in 10 mM sodium phosphate/100 mM NaCl/[…], pH 7.0 was mixed with its complement DNA/RNA 3 μM in 10 mM sodium phosphate/100 mM NaCl/[…], pH 7.0 at 90° C. for a minute and allowed to cool to room temperature. The Tm of the duplex was then determined by increasing the temperature 1° C./min. from 25 to 95° C. The Tm of SEQ ID NO.

[4] = Survivin mRNA down-regulation relative to mock, normalised to GAPDH, standard deviation in brackets, at least three experiments
[5] = 48 hours (Table 7, FIG. 5), read-out: Proliferation IC50 (48 hours)

^MeCsGs^MeCsAsgsaststsasgsasasAs^MeCs^MeCst (l[5mC]*lG*l[5mC]*lA*dG*dA*dT*dT*dA*dG*dA*dA*lA*l[5mC]*l[5mC]*dT) [SEQ ID NO. 24, negative control oligonucleotide, design 4-8-3-1]
Maximum Induction Fold-induction of apoptosis, Caspase 3/7 assay (15PC3 cells [1]; 100 nM, 48 hours, 15PC3 cells): 3.1 x (100 nM, 48 hours) | Fold induction of apoptosis, Caspase 3/7 assay (15PC3 cells [1]; 24 hours, 5 nM, 15PC3 cells, relative to mock): 1.5 x | Proliferation (relative number of viable cells) (15PC3 cells [2]; 0.2, 1, 5, 25 and 100 nM, 13-72 hours after transfection, 15PC3 cells): does not | IC50 (15PC3 cells [2]; 48 hours, transfected 15PC3 cells (Table 5), read-out: Inhibition of proliferation, MTS assay IC50 (48 hours)): 86.9 nM | Induction of early and late apoptosis (Annexin V-FITC/PI staining) (HeLa cells): do not induce apoptosis | Effect on the cell cycle (15PC3 cells [3]): no effect on the cell cycle

5′-Gs^MeCsAsGstsgsgsastsgsasasGs^MeCs^MeCsA-3′ (lG*l[5mC]*lA*lG*dT*dG*dG*dA*dT*dG*dA*dA*lG*l[5mC]*l[5mC]*lA) [SEQ ID NO. 23, reference compound]
IC50 (human Survivin RNA; [4]): 2.5 nM | IC75 [nM] (human Survivin RNA; [4]): 6.2 (1.6) nM | Apoptosis At 5 nM, 24 hours (15PC3 cells [1]; 5 nM): 2-fold | Max Apoptosis (15PC3 cells [1]): 5.5-fold

TsGsTsGscstsaststscstsgstsgsAsAsTsT (lT*lG*lT*lG*dC*dT*dA*dT*dT*dC*dT*dG*dT*dG*lA*lA*lT*lT) [SEQ ID NO. 21]
Apoptosis At 5 nM, 24 hours (15PC3 cells [1]; 5 nM): No activity | Max Apoptosis (15PC3 cells [1]): 2.5-fold | IC50 (15PC3 cells [2]; [5]): 25 nM | Tm (° C.) complementary RNA (complementary RNA): 62.7 °C

^MeCsTscscscsasgscsgstsgscsgs^MeCs^MeCsa (l[5mC]*lT*dC*dC*dC*dA*dG*dC*dG*dT*dG*dC*dG*l[5mC]*l[5mC]*dA) [SEQ ID NO. 26, reference compound]
Survivin mRNA expression (human Survivin RNA; 10 nM, 24 hours, single agent or combined with control oligonucleotides): does not have any effect on Survivin

5′-Gs^MeCsAs^MeCsasgststsgsasasas^MeCsAsTsc-3′ (lG*l[5mC]*lA*l[5mC]*dA*dG*dT*dT*dG*dA*dA*dA*l[5mC]*lA*lT*dC) [SEQ ID NO. 22]
Apoptosis At 5 nM, 24 hours (15PC3 cells [1]; 5 nM): No activity | Max Apoptosis (15PC3 cells [1]): 2.5-fold | IC50 (15PC3 cells [2]; [5]): 25 nM
